This is an account of results in US20090197922A1, “COMPOSITIONS AND METHODS FOR TREATING PULMONARY HYPERTENSION” (The University of Chicago, priority 2006, published 2009).

Series [1] relates to hypoxia-induced model of pulmonary hypertension in Dahl SS rats. The following applies: previously demonstrated; cited from earlier work.
Series [2] shares this test system. Nature of the series: Echocardiography in hypoxia/SU5416 model of pulmonary hypertension. The format is in vivo, rat. Also noted: CO (PA): unit not given beside the values; RVAW / LVPW / CO (Ao) / MPA: unit not given here. The following applies: echocardiogram. As to the method:
As part of the spectrum of sorafenib's pharmacologic activity overlaps with SU5416, a study was performed to determine whether sorafenib had similar effects or with additional mechanisms of inhibitory activity could counteract the effects of SU5416. […] Echocardiograms were performed on all rats at the start of the study. Except for the normoxia group, all rats were maintained in a hypoxia chamber with a partial pressure of oxygen of 10% FiO2 for the duration of the study. Rats in the two SU5416 groups received one subcutaneous injection of SU5416 at the start of the study (20 mg/kg). Stock sorafenib solutions were prepared every three days, crushing and dissolving sorafenib tablets in EL/ethanol (50:50; Sigma Cremophor EL, 95% ethyl alcohol) at final concentration of 4 mg/mL, protected from light exposure and stored at room temperature. Final dosing solutions were prepared on the day of use by dilution of the stock solution to 1 mg/mL with water and administered by gavage to the rats daily. After 3 weeks, all rats had echocardiography and hemodynamic studies. Organ and blood specimens were obtained for further evaluation. […] RV 3DE measurements were also determined (diameters+area), A=RV major diameter, B=RV annulus diastolic diameter & area, C=RV at ⅓ RV major diameter & area, D=RV at ⅔ RV major diameter & area.
(§1) Echocardiograms were performed on all rats at the start of the experiment. Except for the normoxia group, all rats were maintained in a hypoxia chamber with a partial pressure of oxygen of 10% FiO2 for the duration of the experiment. Rats in the 2 SU5416 groups received one subcutaneous injection of SU5416 at the start of the experiment (20 mg/kg). Stock sorafenib solutions were prepared every three days, crushing and dissolving sorafenib tablets in EL/ethanol (50:50; Sigma Cremophor EL, 95% ethyl alcohol) at final concentration of 4 mg/mL, protected from light exposure and stored at room temperature. Final dosing solutions were prepared on the day of use by dilution of the stock solution to 1 mg/mL with water and administered by gavage to the rats daily. After 3 weeks, all rats had echocardiography and hemodynamic studies. Organ and blood specimens were obtained for further evaluation.

Series [3] shares this test system. Nature of the series: Hemodynamic study (pressures, RV/LV weights) in hypoxia/SU5416 model of pulmonary hypertension. The format is in vivo, rat. As to the method:
As part of the spectrum of sorafenib's pharmacologic activity overlaps with SU5416, a study was performed to determine whether sorafenib had similar effects or with additional mechanisms of inhibitory activity could counteract the effects of SU5416. Dahl Salt Sensitive rats were divided into 5 groups: normoxia+vehicle (normal, healthy control), hypoxia+SU5416 (positive control), hypoxia+sorafenib (safety comparison with SU5416), and hypoxia+sorafenib+SU5416 (therapeutic activity assessment). Echocardiograms were performed on all rats at the start of the study. Except for the normoxia group, all rats were maintained in a hypoxia chamber with a partial pressure of oxygen of 10% FiO2 for the duration of the study. Rats in the two SU5416 groups received one subcutaneous injection of SU5416 at the start of the study (20 mg/kg). Stock sorafenib solutions were prepared every three days, crushing and dissolving sorafenib tablets in EL/ethanol (50:50; Sigma Cremophor EL, 95% ethyl alcohol) at final concentration of 4 mg/mL, protected from light exposure and stored at room temperature. Final dosing solutions were prepared on the day of use by dilution of the stock solution to 1 mg/mL with water and administered by gavage to the rats daily. […] Organ and blood specimens were obtained for further evaluation. […] RV 3DE measurements were also determined (diameters+area), A=RV major diameter, B=RV annulus diastolic diameter & area, C=RV at ⅓ RV major diameter & area, D=RV at ⅔ RV major diameter & area.
Protocol includes an initial administration of SU5416 subcutaneously at 20 mg/kg followed daily by sorenfenib oral daily doses of 2.5 mg/kg. Some animals were exposed to chronic hypoxia (10% O2). The animals were divided into five experimental groups: hypoxia+sorafenib; hypoxia+SU5416+sorafenib, normoxia+vehicle control; Hypoxia+vehicle; and hypoxia+SU5416. PAP, RVSP, Echo, and DNA microarrays were used to measure various physiological and molecular biological parameters. FIG. 4 illustrates that hypoxia/SU5416-induces increases in right heart pressures and right heart hypertrophy (RV/LV+Septum).
as §1, with “Fifteen Dahl Salt Sensitive strain rats were divided into 5 groups: normoxia+vehicle (normal, healthy control), hypoxia+vehicle (hypoxia control), hypoxia+SU5416 (positive control), hypoxia+sorafenib (safety comparison with SU5416), and hypoxia+sorafenib+SU5416 (therapeutic activity assessment). Echocardiograms” for “Echocardiograms”, “After 3 weeks, all rats had echocardiography and hemodynamic studies.” left out

Series [4] can be described thus: Body weight of rats in hypoxia/SU5416 study. In kind it is in vivo, rat. Particulars: Dahl SS rats. As to the method:
as §1, with “Fifteen Dahl Salt Sensitive strain rats were divided into 5 groups: normoxia+vehicle (normal, healthy control), hypoxia+vehicle (hypoxia control), hypoxia+SU5416 (positive control), hypoxia+sorafenib (safety comparison with SU5416), and hypoxia+sorafenib+SU5416 (therapeutic activity assessment). Echocardiograms” for “Echocardiograms”

The conditions of series [5]: Wade et al., 2004; cited from earlier work.
The conditions of series [6]: room temperature and neutral pH; cited from earlier work.
A further series concerns PAH patients. The following applies: case report, combination therapy with imatinib at 3 and 6 months; cited from earlier work.
Setting [7] is: PRE (baseline at start of experiment).
[8] abbreviates: 3½ Wk hypoxia (10% FiO2), sorafenib daily 2.5 mg/Kg, SU5416 day zero 20 mg/kg, 2 experiments as one cohort.

With `Cc1cc(C)c(/C=C2\C(=O)Nc3ccccc32)[nH]1` [SU5416], the “effect on pulmonary hypertension in hypoxic rats (previous reports)” value in series [1] is “exacerbate pulmonary hypertension”. Further, in series [2] (POST (after 3 weeks hypoxia)), the “CI (Ao)” value worked out at 0.82 ± 0.22, the “CI(PA)” value was found to be 0.87 ± 0.14, the “CO (Ao)” value amounted to 261 ± 55 and the “CO (PA)” value is 279 ± 69. Further, in series [2] (POST (after 3 weeks hypoxia)), the “FS (%)” value amounted to 63 ± 4%, the “LV Mass (gram)” value was 1.25 ± 0.33 gram, the LVPW was determined as 0.16 ± 0.02 and the MPA was 0.41 ± 0.05. Further, in series [2] (POST (after 3 weeks hypoxia)), the “PA PG (mmHg)” value is 2.05 ± 0.92 mmHg, the RVAW was found to be 0.16 ± 0.03 and the “TV max PG (mmHg)” value was 5.63 ± 4.07 mmHg. Further, in series [2] (setting [7]), the “CI (Ao)” value was determined as 0.95 ± 0.06, the “CI(PA)” value came out at 1.21 ± 0.26, the “CO (Ao)” value came out at 310 ± 10 and the “CO (PA)” value was 400 ± 99. Moreover, in series [2] (setting [7]), the “FS (%)” value is recorded as 71 ± 11%, the “LV Mass (gram)” value is on record as 1.30 ± 0.14 gram, the LVPW came out at 0.16 ± 0.04 and the MPA came to 0.45 ± 0.01. Moreover, in series [2] (setting [7]), the “PA PG (mmHg)” value is given as 3.65 ± 2.76 mmHg and the RVAW came to 0.07. Further, in series [3] (setting [8]), the “BP mmHg (+/−) SE” value was 78 +/− 4 mmHg, the “PA mmHg (+/−) SE” value is reported as 33 +/− 3 mmHg and the “RVSP mmHg (+/−) SE” value is reported as 30 +/− 4 mmHg. Further, the “development of pulmonary hypertension (right ventricular and pulmonary artery pressures, right ventricle/left ventricular weights)” value in series [3] (hypoxia 10% FiO2, 3 weeks, SU5416 20 mg/kg once, sorafenib by gavage daily) is “developed pulmonary hypertension”. Besides, the “Wt” value in series [4] (POST (after 3 weeks hypoxia)) is on record as 324 ± 22 g. In series [4] (setting [7]), the “Wt” value is given as 328 ± 11 g.

The half-life is the time in which the quantity being followed falls by half. As to `CCCCC[C@H](O)CC[C@@H]1[C@H]2Cc3cccc(OCC(=O)O)c3C[C@H]2C[C@H]1O` [Treprostinil], in series [5], the half-life is 3 to 4 h. Besides, the chemical stability entry in series [6] was “chemically stable at room temperature and neutral pH”.

For the compound `Cc1ccc(NC(=O)c2ccc(CN3CCN(C)CC3)cc2)cc1Nc1nccc(-c2cccnc2)n1` [imatinib], the “improvement in 6MW” value with PAH patients is 60%.
